US20050106141A1, “Hairless protein-interacting partner complexes and methods thereof for the beautification and/or improvement of mammalian skin” (The Procter & Gamble Company, priority 2003, published 2005)
Read-outs that look alike come from different tables or passages of the source.

Key:
LXR [1] = details: oral administration, hamsters; cited from earlier work
LXR [2] = details: oral administration, mice; cited from earlier work
[3] = target: T1, BD-VDR><AD-TRβ interaction (Mus musculus, UniProt P48281); assay: Yeast two-hybrid alpha-galactosidase reporter assay, BD-VDR interaction with AD-TRβ; assay type: cell-based; details: assay of example 3
T1 construct: expressed in transfected cells; host or cells: yeast
T1 sequence (P48281 1-422): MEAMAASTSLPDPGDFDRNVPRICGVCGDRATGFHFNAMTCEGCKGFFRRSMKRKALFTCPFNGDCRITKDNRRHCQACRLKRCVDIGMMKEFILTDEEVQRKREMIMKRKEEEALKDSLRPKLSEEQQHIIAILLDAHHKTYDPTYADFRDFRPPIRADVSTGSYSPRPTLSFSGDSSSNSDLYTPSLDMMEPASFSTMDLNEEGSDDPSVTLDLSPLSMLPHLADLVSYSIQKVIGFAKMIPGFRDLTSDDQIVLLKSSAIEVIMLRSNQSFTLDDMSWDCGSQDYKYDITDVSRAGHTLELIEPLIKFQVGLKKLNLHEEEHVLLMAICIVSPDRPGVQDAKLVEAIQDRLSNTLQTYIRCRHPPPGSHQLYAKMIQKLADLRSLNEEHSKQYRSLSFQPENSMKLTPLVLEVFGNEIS
T1 sequence (P10828 1-461 partner): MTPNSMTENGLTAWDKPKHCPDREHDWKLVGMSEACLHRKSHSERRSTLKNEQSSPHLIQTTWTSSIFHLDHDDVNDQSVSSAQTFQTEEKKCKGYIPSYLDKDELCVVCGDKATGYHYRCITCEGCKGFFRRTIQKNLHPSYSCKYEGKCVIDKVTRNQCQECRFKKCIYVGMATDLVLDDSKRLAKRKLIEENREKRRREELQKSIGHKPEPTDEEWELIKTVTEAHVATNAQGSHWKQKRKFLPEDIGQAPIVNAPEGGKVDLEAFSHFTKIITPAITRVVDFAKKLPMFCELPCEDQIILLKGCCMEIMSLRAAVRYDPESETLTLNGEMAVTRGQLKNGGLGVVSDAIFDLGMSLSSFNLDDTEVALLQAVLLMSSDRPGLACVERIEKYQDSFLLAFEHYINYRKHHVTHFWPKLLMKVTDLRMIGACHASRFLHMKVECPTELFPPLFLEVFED
Description: Increase or decrease in alpha-galactosidase activity of AH109 (BD-HRt><AD-IP) strain grown in Leu, Trp, His TDO in the presence of various test compounds is used to screen for agonists or antagonists of BD-HRt><AD-IP interaction. A diverse library of compounds is screened.
Microtiter plates with TDO media seeded with freshly cultured yeast cells at 0.05 optical density at 650 nm (OD650) are treated with various test compounds at 100-400 uM or vehicle (DMSO) control. Stock solutions of test compounds at 10-20 mM are made in DMSO and tested at 100-400 μM final concentration. The final assay mixture comprising of cells, TDO and compound (or DMSO alone) is adjusted to be 100 ul and the amount of DMSO is maintained at or below 2%. The plates are incubated for 3-4 days without shaking at 25° C. Plates are briefly agitated to obtain uniform suspension of cells prior to addition of assay buffer. […] Plates are briefly agitated to obtain uniform suspension of cells and absorbance at both 650 nM (OD650)ref and 410 nm (OD410)ref are measured. […] For color development 100 ul of 0.1 M sodium carbonate solution is added and after standing for at least 1 minute, OD410exp is measured.

O=S(=O)(c1ccccc1)N(CC(F)(F)F)c1ccc(C(O)(C(F)(F)F)C(F)(F)F)cc1 [T0901317]
plasma phospholipid levels (LXR [1]): increased
plasma triglyceride levels (LXR [1]): increased
plasma phospholipid levels (LXR [2]): increased
plasma triglyceride levels (LXR [2]): increased

C=C1CC[C@H](O)C/C1=C/C=C1\CCC[C@]2(C)[C@@H]([C@H](C)CCCC(C)(C)O)CC[C@@H]12 [25 HC, 25-hydroxy cholecalciferol]
enhancement of BD-VDR / AD-TRβ interaction [3]: approximately 2 fold
